Experimental data taken from patent US11872228B2, “Pharmaceutical composition containing thiamine derivative for prevention or treatment of sepsis” (KYUNGPOOK NATIONAL UNIVERSITY INDUSTRY-ACADEMIC COOPERATION …, priority 2021, dated 2024).
Like-named read-outs stand apart in the source and are kept apart here.

Assays:
[1] = system: LPS-induced sepsis mouse model
Method: (The signs of the moribund state: impaired mobility, inability to maintain upright position, prolonged lack of activity and labored breathing)
Six- to eight-week old C57BL/6J male mice were grouped, each group containing seven mice. The whole experimental schedule is shown FIG. 1. The mice were fed fursultiamine 24 hours and 30 minutes before intraperitoneal injection of 40 mg/kg LPS, and then again administered fursultiamine 6 hours after the intraperitoneal injection, and then the survival rates of the mice were monitored and the results are shown in FIG. 2 and Table 1.

TNFα [2] = experiment: Inhibition of TNFα expression in LPS-activated dendritic cells (ELISA of supernatants); format: cell-based, C57BL/6J male mice; details: for TNFα (pg/mL): dendritic cells, 100 ng/mL LPS 18 h
Method: (§1) The dendritic cells at 1×10^6 cells/mL were treated with benfotiamine and fursultiamine at different concentrations of 0, 1, 10, and 100 and allithiamine at different concentrations of 0, 1, and 10 μM.
Thereafter, the dendritic cells were activated with 100 ng/mL LPS for 18 hours.

IL-1β [3] = experiment: Inhibition of IL-1β expression in LPS-primed, ATP-treated dendritic cells; format: cell-based, C57BL/6J male mice; details: for IL-1β: LPS priming + 5 mM ATP
Method: Bone marrow was extracted from the legs of six- to eight-week old C57BL/6J male mice, and subjected to red blood cell (RBC) lysis, followed by differentiation into dendritic cells in RPMI 1640 medium (10% fetal bovine serum (FBS) and 1% penicillin-streptomycin) along with 20 ng/ml granulocyte-macrophage colony-stimulating factor (GM-CSF) for six days. The dendritic cells at 1×10^6 cells/mL were treated with benfotiamine and fursultiamine at different concentrations of 0, 1, 10, and 100 and allithiamine at different concentrations of 0, 1, and 10 μM.
The dendritic cells were subjected to pro-IL1b priming by the treatment with 500 ng/mL LPS for 3 hours, and then treated with benfotiamine at 0, 10, 50, or 100 and fursultiamine at 0, 10, 50, or 100 μM, for 15 minutes. Then, pro-IL1b was converted into IL-1β through pro-IL1b cleavage, followed by 5 mM ATP treatment for inducing inflammasome formation.

CD40 = CD40 expression in CD11c+ dendritic cells by flow cytometry; format: cell-based, C57BL/6J male mice
Method: as §1
(§2) The dendritic cells were measured for CD40 and CD86 in CD11c+ cells by flow cytometry, and the results are shown in FIGS. 6A and 6B and Tables 5 and 6.

CD86 [4] = experiment: CD86 expression in CD11c+ dendritic cells by flow cytometry; format: cell-based, C57BL/6J male mice
Method: as §1, §2

IL-1β [5] = system: IL-1β
TNFα [6] = experiment: Inhibition of TNFα expression in LPS-activated dendritic cells (ELISA of supernatants); format: cell-based, C57BL/6J male mice; details: for TNFα expression level relative to LPS alone: LPS-activated dendritic cells
CD86 [7] = experiment: CD86 expression in CD11c+ dendritic cells by flow cytometry; format: cell-based, C57BL/6J male mice; details: 50 μM, 100 ng/mL LPS
[8] = 1 μM, dendritic cells, 100 ng/mL LPS
[9] = 10 μM, dendritic cells, 100 ng/mL LPS
[10] = 100 μM, dendritic cells not stimulated by LPS
[11] = 100 μM, dendritic cells, 100 ng/mL LPS

CC(=C(CCO)SSCC1CCCO1)N(C=O)Cc1cnc(C)nc1N (stereo in doubt) [Fursultiamine, fursultiamine]
Survival despite LPS injection (in words) ([1]; fed 100 mg/kg, 40 mg/kg LPS i.p.): not dead | Percent survival (%) ([1]; fursultiamine 100 mg/kg fed 24 h and 30 min before and 6 h after 40 mg/kg LPS i.p., 0 d): 100% | Percent survival (%) ([1]; fursultiamine 100 mg/kg fed, 40 mg/kg LPS i.p., 1 d): 100% | Percent survival (%) ([1]; fursultiamine 100 mg/kg fed, 40 mg/kg LPS i.p., 2 d): 100% | Percent survival (%) ([1]; fursultiamine 100 mg/kg fed, 40 mg/kg LPS i.p., 3 d): 100% | Percent survival (%) ([1]; fursultiamine 100 mg/kg fed, 40 mg/kg LPS i.p., 4 d): 100% | Percent survival (%) ([1]; fursultiamine 100 mg/kg fed, 40 mg/kg LPS i.p., 5 d): 100% | Percent survival (%) ([1]; fursultiamine 100 mg/kg fed, 40 mg/kg LPS i.p., 6 d): 100% | Percent survival (%) ([1]; fursultiamine 100 mg/kg fed, 40 mg/kg LPS i.p., 7 d): 100% | TNFα (pg/mL) (TNFα [2]; 1 μM): 4,954.64 pg/mL | TNFα expression level relative to LPS alone (TNFα [2]; 10 μM, LPS-activated dendritic cells): about 68.60% | TNFα (pg/mL) (TNFα [2]; 10 μM): 3,600.63 pg/mL | TNFα (pg/mL) (TNFα [2]; 100 μM): 1,628.26 pg/mL | IL-1β (IL-1β [3]; 10 μM): 878.0075 pg/mL | IL-1β expression level relative to LPS + ATP alone (IL-1β [3]; 50 μM): about 85.8237% | IL-1β (IL-1β [3]; 50 μM): 799.4891 pg/mL | IL-1β expression level relative to LPS + ATP alone (IL-1β [3]; 100 μM): about 63.6037% | IL-1β (IL-1β [3]; 100 μM): 592.4987 pg/mL | CD40 (Mean fluorescence intensity; MFI) (CD40; [8]): 1,992 MFI | CD40 (Mean fluorescence intensity; MFI) (CD40; [9]): 2,026 MFI | CD40 expression level relative to LPS alone (CD40; 100 μM, dendritic cells): about 62% | CD40 (Mean fluorescence intensity; MFI) (CD40; [10]): 253 MFI | CD40 (Mean fluorescence intensity; MFI) (CD40; [11]): 1,245 MFI | CD86 (Mean fluorescence intensity; MFI) (CD86 [4]; [8]): 2,684 MFI | CD86 (Mean fluorescence intensity; MFI) (CD86 [4]; [9]): 2,864 MFI | CD86 expression level relative to LPS alone (CD86 [4]; 100 μM, dendritic cells): about 13% | CD86 (Mean fluorescence intensity; MFI) (CD86 [4]; [10]): 382 MFI | CD86 (Mean fluorescence intensity; MFI) (CD86 [4]; [11]): 351 MFI | IL-1β (IL-1β [5]; fursultiamine (50 mg/kg as in table; 100 mg/kg in text) along with LPS, 0 h): 4.483 pg/mL | IL-1β (IL-1β [5]; fursultiamine along with LPS, 1 h): 6.115 pg/mL | IL-1β (IL-1β [5]; fursultiamine along with LPS, 3 h): 96.715 pg/mL | IL-1β (IL-1β [5]; fursultiamine along with LPS, 6 h): 186.088 pg/mL | IL-1β expression level relative to the control without administration (IL-1β [5]; fursultiamine along with LPS, 6 hours): about 54.936% | IL-1β (IL-1β [5]; fursultiamine along with LPS, 12 h): 495.824 pg/mL | IL-1β expression level relative to the control without administration (IL-1β [5]; fursultiamine along with LPS, 12 hours): about 60.777% | IL-1β (IL-1β [5]; fursultiamine along with LPS, 18 h): 171.451 pg/mL | IL-1β expression level relative to the control without administration (IL-1β [5]; fursultiamine along with LPS, 18 hours): about 29.673% | TNFα expression level relative to LPS alone (TNFα [6]; 50 μM): about 57.22% | TNFα (pg/mL) (TNFα [6]; 50 μM, dendritic cells, 100 ng/mL LPS 18 h): 3,003.47 pg/mL | TNFα expression level relative to LPS alone (TNFα [6]; 100 μM): about 31.02% | TNFα (TNFα [6]; [10]): 38.37 pg/mL | CD86 (Mean fluorescence intensity; MFI) (CD86 [7]): 1,275 MFI
